From ChEMBL document CHEMBL5537151, “Design, synthesis and bioactivity evaluation of novel fusion peptides and their CPT conjugates inducing effective anti-tumor responses on HER2 positive tumors” (Eur J Med Chem, 2024)
Calls of active or inactive are those of the source. No cut-off for these calls is given here. Peptide text beside a SMILES is read from it. * marks the point of attachment. X1 = CCC1(C(=O)OCCS*)C(=O)OCc2c1cc1n(c2=O)Cc2cc3ccccc3nc2-1

Assays:
[1] = target: T1, DNA topoisomerase 1 (Homo sapiens) (UniProt P11387); assay: Inhibition of topoisomerase 1 (unknown origin) assessed as reduction in DNA relaxation by measuring increase in supercoiled DNA level pretreated for 20 mins in water bath followed by pBR322 DNA addition and measured after 30 mins by agarose gel electrophoresis; conditions: dose 1-100 µM, time 50.0 min
T1 sequence (whole entry): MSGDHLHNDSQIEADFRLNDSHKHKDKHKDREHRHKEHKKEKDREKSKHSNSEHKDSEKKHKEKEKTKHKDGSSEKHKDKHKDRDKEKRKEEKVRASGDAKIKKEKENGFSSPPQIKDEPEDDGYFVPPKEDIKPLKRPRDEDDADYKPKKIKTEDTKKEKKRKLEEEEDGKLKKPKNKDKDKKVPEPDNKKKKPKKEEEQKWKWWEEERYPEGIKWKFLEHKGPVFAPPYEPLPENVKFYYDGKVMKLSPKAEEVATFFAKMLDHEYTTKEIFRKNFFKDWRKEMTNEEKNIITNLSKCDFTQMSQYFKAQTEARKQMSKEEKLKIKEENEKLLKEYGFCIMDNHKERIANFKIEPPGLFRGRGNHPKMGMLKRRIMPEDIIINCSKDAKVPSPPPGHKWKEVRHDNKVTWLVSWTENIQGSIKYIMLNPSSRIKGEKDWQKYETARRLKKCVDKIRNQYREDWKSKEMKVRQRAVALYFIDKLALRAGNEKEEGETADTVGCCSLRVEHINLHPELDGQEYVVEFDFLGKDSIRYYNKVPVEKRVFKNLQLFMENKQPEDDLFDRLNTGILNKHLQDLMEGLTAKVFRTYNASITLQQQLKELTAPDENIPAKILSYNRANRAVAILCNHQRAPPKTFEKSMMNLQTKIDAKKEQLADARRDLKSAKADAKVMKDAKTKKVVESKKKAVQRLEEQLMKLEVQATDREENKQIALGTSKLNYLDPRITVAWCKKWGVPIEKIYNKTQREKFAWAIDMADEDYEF

[2] = Cytotoxicity against HER-negative human MCF-10A cells incubated for 48 hrs by CCK-8 assay; type: toxicity, cell-based
[3] = Toxicity in nude mouse xenografted with human SK-BR-3 cells assessed as inflammatory cell infiltration in liver at 8 umol/kg, iv administered every 3 days for 14 days by H and E staining based analysis; type: organism-based; conditions: in vivo, 336 h, dose 8 µmol/kg, time 14 day
SK-BR-3 [4] = assay: cells; conditions: Homo sapiens, SK-BR-3, 48 h
Description: Cytotoxicity against HER-positive human SK-BR-3 cells incubated for 48 hrs by CCK-8 assay

[5] = Toxicity in nude mouse xenografted with human SK-BR-3 cells assessed as cell necrosis in lung at 8 umol/kg, iv administered every 3 days for 14 days by H and E staining based analysis; type: organism-based; conditions: in vivo, 336 h, dose 8 µmol/kg, time 14 day
[6] = Toxicity in nude mouse xenografted with human SK-BR-3 cells assessed as cell necrosis in heart at 8 umol/kg, iv administered every 3 days for 14 days by H and E staining based analysis; type: organism-based; conditions: in vivo, 336 h, dose 8 µmol/kg, time 14 day
[7] = Toxicity in nude mouse xenografted with human SK-BR-3 cells assessed as cell necrosis in spleen at 8 umol/kg, iv administered every 3 days for 14 days by H and E staining based analysis; type: organism-based; conditions: in vivo, 336 h, dose 8 µmol/kg, time 14 day
[8] = Toxicity in nude mouse xenografted with human SK-BR-3 cells assessed as change in alkaline phosphatase level at 8 umol/kg, iv administered every 3 days for 14 days; type: organism-based; conditions: in vivo, 336 h, dose 8 µmol/kg, time 14 day
[9] = Toxicity in nude mouse xenografted with human SK-BR-3 cells assessed as inflammatory cell infiltration in lung at 8 umol/kg, iv administered every 3 days for 14 days by H and E staining based analysis; type: organism-based; conditions: in vivo, 336 h, dose 8 µmol/kg, time 14 day
[10] = Toxicity in nude mouse xenografted with human SK-BR-3 cells assessed as change in globulin level at 8 umol/kg, iv administered every 3 days for 14 days; type: organism-based; conditions: in vivo, 336 h, dose 8 µmol/kg, time 14 day
SK-BR-3 [11] = assay: Induction of apoptosis in human SK-BR-3 cells assessed as downregulation of cIAP1 protein expression at 2.5 to 5 uM incubated for 24 hrs by Western blot analysis; type: functional, cell-based; conditions: dose 2.5-5 µM
[12] = Toxicity in nude mouse xenografted with human SK-BR-3 cells assessed as change in total protein level at 8 umol/kg, iv administered every 3 days for 14 days; type: organism-based; conditions: in vivo, 336 h, dose 8 µmol/kg, time 14 day
[13] = Toxicity in nude mouse xenografted with human SK-BR-3 cells assessed as increase in ALT level at 8 umol/kg, iv administered every 3 days for 14 days; type: organism-based; conditions: in vivo, 336 h, dose 8 µmol/kg, time 14 day
[14] = Toxicity in nude mouse xenografted with human SK-BR-3 cells assessed as change in blood urea nitrogen level at 8 umol/kg, iv administered every 3 days for 14 days; type: organism-based; conditions: in vivo, 336 h, dose 8 µmol/kg, time 14 day
SK-BR-3 [15] = assay: Antitumor activity against human SK-BR-3 cells xenografted in nude mouse assessed as inhibition of tumor growth at 8 umol/kg, iv administered every 3 days for 14 days and measured every 2 days by vernier caliper analysis; type: functional, organism-based; conditions: dose 8.0 µmol/kg, time 14.0 day
[16] = Toxicity in nude mouse xenografted with human SK-BR-3 cells assessed as cell necrosis in kidney at 8 umol/kg, iv administered every 3 days for 14 days by H and E staining based analysis; type: organism-based; conditions: in vivo, 336 h, dose 8 µmol/kg, time 14 day
SK-BR-3 [17] = assay: Induction of apoptosis in human SK-BR-3 cells assessed as early apoptotic cells at 1 uM incubated for 24 hrs by Annexin V-FITC/PI staining based flow cytometry analysis (reference value: 2.80%); type: functional
[18] = Drug release in human SK-BR-3 cells assessed as cathepsin-mediated SMAC polypeptide release at 10 uM incubated for 6 hrs by FITC/Lysotracker red dye based laser confocal microscopic analysis; type: ADME, cell-based; conditions: sk-br-3, 6 h
[19] = Toxicity in nude mouse xenografted with human SK-BR-3 cells assessed as inflammatory cell infiltration in kidney at 8 umol/kg, iv administered every 3 days for 14 days by H and E staining based analysis; type: organism-based; conditions: in vivo, 336 h, dose 8 µmol/kg, time 14 day
SK-OV-3 = assay: cells; conditions: Homo sapiens, SK-OV-3, 48 h
Description: Cytotoxicity against HER-positive human SK-OV-3 cells incubated for 48 hrs by CCK-8 assay

[20] = Toxicity in nude mouse xenografted with human SK-BR-3 cells assessed as inflammatory cell infiltration in heart at 8 umol/kg, iv administered every 3 days for 14 days by H and E staining based analysis; type: organism-based; conditions: in vivo, 336 h, dose 8 µmol/kg, time 14 day
[21] = Toxicity in nude mouse xenografted with human SK-BR-3 cells assessed as change in albumin level at 8 umol/kg, iv administered every 3 days for 14 days; type: organism-based; conditions: in vivo, 336 h, dose 8 µmol/kg, time 14 day
SK-BR-3 [22] = assay: Induction of apoptosis in human SK-BR-3 cells assessed as late apoptotic cells at 1 uM incubated for 24 hrs by Annexin V-FITC/PI staining based flow cytometry analysis (reference value: 1.11%); type: functional
[23] = Drug localization in lysosome of human SK-BR-3 cells assessed as increase in green fluorescence of FITC at 10 uM incubated for 6 hrs by FITC/Lysotracker red dye based laser confocal microscopic analysis; type: ADME, subcellular; conditions: sk-br-3, 6 h
[24] = Drug release in human SK-BR-3 cells assessed as cathepsin-mediated camptothecin release by measuring increase in blue fluorescence at 10 uM incubated for 6 hrs by FITC/Lysotracker red dye based laser confocal microscopic analysis; type: ADME, cell-based; conditions: sk-br-3, 6 h
[25] = Toxicity in nude mouse xenografted with human SK-BR-3 cells assessed as increase in AST level at 8 umol/kg, iv administered every 3 days for 14 days; type: organism-based; conditions: in vivo, 336 h, dose 8 µmol/kg, time 14 day
MDA-MB-231 = assay: cells; conditions: Homo sapiens, MDA-MB-231, 48 h
Description: Cytotoxicity against HER-negative human MDA-MB-231 cells incubated for 48 hrs by CCK-8 assay

inhibition [1]: Dose-Dependent Effect
IC50 (SK-BR-3 [4]): 0.53 µM
Drug metabolism [18]: Metabolite_Detected
IC50 (SK-OV-3): 2.5 µM
Drug uptake [23]: Active
Drug metabolism [24]: Metabolite_Detected
IC50 (MDA-MB-231): 18.4 µM
SMILES: CC[C@H](C)[C@H](NC(=O)[C@@H]1CCCN1C(=O)[C@@H](NC(=O)[C@H](C)N)C(C)C)C(=O)N[C@@H](C)C(=O)N[C@@H](CCC(N)=O)C(=O)N[C@@H](CCCCN)C(=O)N[C@@H](CSSCCOC(=O)C1(CC)C(=O)OCc2c1cc1n(c2=O)Cc2cc3ccccc3nc2-1)C(=O)NCC(=O)N[C@@H](Cc1ccccc1)C(=O)N[C@@H](CC(C)C)C(=O)NCC(=O)N[C@@H](CC(N)=O)C(=O)N1CCC[C@H]1C(=O)N[C@@H](CC(N)=O)C(=O)N[C@@H](Cc1c[nH]c2ccccc12)C(=O)NCC(=O)N[C@@H](CCCNC(=N)N)C(=O)N[C@@H](CO)C(=O)N[C@@H](Cc1c[nH]c2ccccc12)C(=O)N[C@@H](Cc1ccc(O)cc1)C(=O)N[C@@H](CC(N)=O)C(=O)N[C@@H](CCC(N)=O)C(=O)N[C@@H](CCCNC(=N)N)C(=O)N[C@@H](Cc1ccccc1)C(=O)N[C@@H](CCCCN)C(N)=O (some centres not stated) (H-AVPIAQKC(X1)GFLGNPNWGRSWYNQRFK-NH2)
IC50 at 48 h [2]: 17.8 µM
Activity [3]: Non-Toxic
Activity [5]: Non-Toxic
Activity [6]: Non-Toxic
Activity [7]: Non-Toxic
Activity [8]: Non-Toxic
Activity [9]: Non-Toxic
Activity [10]: Non-Toxic
Activity (SK-BR-3 [11]): Active
Activity [12]: Non-Toxic
Activity [13]: Toxic
Activity [14]: Non-Toxic
Activity (SK-BR-3 [15]): Active
Activity [16]: Non-Toxic
Activity (SK-BR-3 [17]): 26%
Activity [19]: Non-Toxic
Activity [20]: Non-Toxic
Activity [21]: Non-Toxic
Activity (SK-BR-3 [22]): 9.46%
Activity [25]: Toxic
